Assay results as given in patent publication US12060347B2 (BRISTOL-MYERS SQUIBB COMPANY, priority 2016, dated 2024).

Target: T1, human PAR4 (Homo sapiens, UniProt Q96RI0)
T1 construct: expressed in transfected cells; host or cells: HEK293 PAR4 Clone 1.2A (BMS Arctic ID 383940)
T1 sequence (Q96RI0 18-385): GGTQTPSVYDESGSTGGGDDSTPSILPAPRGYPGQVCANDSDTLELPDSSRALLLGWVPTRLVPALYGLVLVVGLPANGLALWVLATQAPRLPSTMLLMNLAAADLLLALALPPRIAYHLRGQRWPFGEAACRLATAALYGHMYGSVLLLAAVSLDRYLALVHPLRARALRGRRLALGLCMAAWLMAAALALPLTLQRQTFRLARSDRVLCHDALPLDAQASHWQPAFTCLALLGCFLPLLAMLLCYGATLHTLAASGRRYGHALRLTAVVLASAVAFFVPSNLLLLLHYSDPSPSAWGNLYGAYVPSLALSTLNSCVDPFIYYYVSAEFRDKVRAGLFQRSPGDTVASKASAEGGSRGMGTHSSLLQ
Experiment: PAR4 FLIPR assay: antagonism of agonist-peptide-induced calcium mobilization in PAR4-expressing HEK293 cells
Format: cell-based
Settings: H-Ala-Phe(4-F)-[…]NH2-induced intracellular calcium mobilization, 11-point curves

| IC50 | SMILES |
| --- | --- |
| 2.1 nM | COc1cnc2c(-c3nc4cc(F)c(OC[C@@H](C)OC(=O)Nc5ccc(C(=O)NCC(C)(C)O)nc5)nc4s3)cc(C)cc2n1 [Example 741, (R)-1-((6-fluoro-2-(2-methoxy-7-methylquinoxalin-5-yl)thiazolo[5,4-b]pyridin-5-yl)oxy) propan-2-yl (6-((2-hydroxy-2-methylpropyl)carbamoyl)pyridin-3-yl)carbamate] |
| 6.8 nM | COCc1cnc2c(-c3nc4c(Cl)cc(OC)c(F)c4s3)cc(C)cc2n1 [Example 265, 4-chloro-7-fluoro-6-methoxy-2-(2-(methoxymethyl)-7-methylquinoxalin-5-yl)benzo[d]thiazole] |
| 10 nM | COCc1cnc2c(-c3nc4c(OCc5ccccc5)cc(OC)cc4s3)cc(C)cc2n1 [Example 635, 4-(benzyloxy)-6-methoxy-2-(2-(methoxymethyl)-7-methylquinoxalin-5-yl)benzo[d]thiazole] |
| 1.4 nM | COc1cnc2c(-c3nc4cc(F)c(O[C@@H](C)[C@@H](C)OC(=O)Nc5cnc(O[C@H](C)CO)nc5)nc4s3)cc(C)cc2n1 [Example 722, (2R,3S)-3-((6-fluoro-2-(2-methoxy-7-methylquinoxalin-5-yl)thiazolo[5,4-b]pyridin-5-yl)oxy)butan-2-yl (2-(((R)-1-hydroxypropan-2-yl)oxy)pyrimidin-5-yl)carbamate] |
| 3.1 nM | COc1cnc2c(-c3nc4c(Cl)c(F)c(O[C@@H](C)[C@@H](C)OC(=O)Nc5ccc(F)nc5)cc4s3)cc(Cl)cc2c1 [Example 797, (2R,3S)-3-((4-chloro-2-(6-chloro-3-methoxyquinolin-8-yl)-5-fluorobenzo[d]thiazol-6-yl)oxy)butan-2-yl (6-fluoropyridin-3-yl)carbamate] |
| 2.8 nM | COc1cnc2c(-c3nc4cc(F)c(O[C@@H](C)[C@@H](C)OC(=O)Nc5cnc(OC[C@@H](C)O)nc5)nc4s3)cc(C)cc2n1 [Example 729, (2R,3S)-3-((6-fluoro-2-(2-methoxy-7-methylquinoxalin-5-yl)thiazolo[5,4-b]pyridin-5-yl)oxy)butan-2-yl (2-((R)-2-hydroxypropoxy)pyrimidin-5-yl)carbamate] |
| 9.1 nM | COc1cnc2c(-c3nc4cc(F)c(OC[C@@H](C)OC(=O)Nc5ccc(C(=O)N6CCOC[C@@H]6CO)nc5)cc4s3)cc(C)cc2n1 [Example 489, (R)-1-((5-fluoro-2-(2-methoxy-7-methylquinoxalin-5-yl)benzo[d]thiazol-6-yl)oxy)propan-2-yl (6-((S)-3-(hydroxymethyl)morpholine-4-carbonyl)pyridin-3-yl)carbamate] |
| 5.6 nM | Cc1ncc(NC(=O)O[C@H](C)[C@H](C)Oc2cc3sc(-c4cc(Cl)cc5cc(OC(F)F)cnc45)nc3cc2F)cn1 [Example 650, (2R,3S)-3-((2-(6-chloro-3-(difluoromethoxy)quinolin-8-yl)-5-fluorobenzo[d]thiazol-6-yl)oxy)butan-2-yl (2-methylpyrimidin-5-yl)carbamate] |
| 4.3 nM | COCc1cnc2c(-c3nc4c(F)cccc4s3)cc(C)cc2n1 [Example 273, 4-fluoro-2-(2-(methoxymethyl)-7-methylquinoxalin-5-yl)benzo[d]thiazole] |
| 1.4 nM | COc1ccc(NC(=O)OCC(C)Oc2cc3sc(-c4cc(C)cc5nc(OC)cnc45)nc3c(Cl)c2F)cn1 (racemic) [Example 381, 2-((4-chloro-5-fluoro-2-(2-methoxy-7-methylquinoxalin-5-yl)benzo[d]thiazol-6-yl)oxy)propyl (6-methoxypyridin-3-yl)carbamate] |
| 6.8 nM | Cc1cc(-c2nc3cccc(NC(=O)OC(C)(C)C)c3s2)c2ncc(OC(F)F)nc2c1 [Example 14, tert-butyl (2-(2-(difluoromethoxy)-7-methylquinoxalin-5-yl)benzo[d]thiazol-7-yl) carbamate] |
| 9.8 nM | Cc1cc(-c2nc3c(F)cccc3s2)c2ncc(OC(F)F)nc2c1 [Example 53, 2-(2-(difluoromethoxy)-7-methylquinoxalin-5-yl)-4-fluorobenzo[d]thiazole] |
